Experimental data reported in US7846891B2, “Self-assembling peptides for regeneration and repair of neural tissue” (Massachusetts Institute of Technology, priority 2003, dated 2010).
“Also recorded” adds a separate entry of the source.

What was measured:
[1] = tested on: optic tract within the superior colliculus (brain wound); assay: Optic tract transection (knife wound in superior colliculus) in P2 hamster pups; histology and CT-B axon tracing; format: in vivo, Syrian hamster
Protocol: Animals and surgery. Syrian hamster pups at two days of age (P2) were anesthetized with whole-body cooling. […] At surgery, 10 animals were treated by injection into the brain wound of 10 microliters of 1% SAP RADA16-I (n-RADARADARADARADA-c; SEQ ID NO: 1) prepared by dissolving peptide in sterile water. The overlying scalp was then closed with tissue glue (cyanoacrylic). The pups were returned to the cage, placed under a heat lamp, and monitored until they recovered. After recovery the hamster pups were returned to their mother. Control animals with the same lesion included 3 with isotonic saline injection (10 microliters), and 27 earlier cases with knife cuts and no injection.
(§1) Axon tracing method. Four days before the animals were sacrificed they were anesthetized with intraperitoneal injection of Valium (50 mg/kg) and Nembutal (10 mg/kg). […]. This was accomplished with the aid of glass micropipette (tip diameter ˜10 μm) attached to a General Valve Pico Spritzer as previously described. The subjects were then returned to their cages, under a heat lamp, and monitored until they recovered.
Histology. The animals were sacrificed with an overdose of anesthesia 4 days after the intraocular injection of CT-B and were then perfused transcardially with PBS buffer (pH 7.4) followed by 2% paraformaldehyde in 0.1M phosphate buffer (pH 7.4). The brains and eyes were removed and postfixed at 4° C. until they sank. The tissue was cut on a cryostat in 30 micron coronal sections. These sections were mounted directly on gelatin-coated slides. The mounted sections were first air dried, then washed with PBS (pH 7.4) three times at 10 min intervals, and then preblocked in PBS (pH 7.4) containing 2% Triton X-100, 2% normal rabbit serum, and 2.5% bovine serum albumin for 30 min at room temperature. The slides were then incubated with goat anti-cholaragenoid (List Biological Lab, Inc.) (1:8000 dilution)+2% Triton X-100, 2% normal rabbit serum, and 2.5% bovine serum albumin for 48 hours at room temperature. Slides were then washed in PBS (pH 7.4) for three rounds of 10 min each. Sections were incubated with fluorescent donkey anti-IgG antibody Alexa-488 (secondary antibody from Molecular Probes, Inc.) (1:200 dilution) for 1 her 30 min at room temperature in a light protected chamber. Slides were then washed in PBS (pH 7.4) 4 to 5 times at 5 min intervals. The slides were then cover-slipped with Dabco. The slides were visualized through a fluorescent microscope and pictures were taken with a Kodak DCS 620 digital camera. […]

[2] = tested on: brachium of the superior colliculus (brain wound); assay: Visually elicited orienting (head turning) test after transection of the brachium of the superior colliculus in adult hamsters; format: in vivo, Syrian hamster; settings: BSC transected at 2 months of age, 10 ul of 1% SAP at surgery, testing from day 44-46, listed as SAP
Protocol: Thus functional recovery of severed axons can be assessed by evaluating visually elicited head turning at various times after infliction of a lesion that severs the brachium, such as those described in Example 1.
To determine the extent of return of vision the animals are tested for visually elicited orienting responses. The identity of the animal is unknown to the investigator during testing periods. Before behavioral testing, the animals are habituated to the testing environment. Videotaping of the response is accomplished by the use of an overhead Sony digital video (DV) recorder. Some of the trials are simultaneously taped from the side with another Sony DV recorder. Later the video is analyzed frame-by-frame on a 21-inch monitor. All of the cameras are time synchronized. The first type of analysis is to determine if the trial is valid or invalid. Once a trial is judged as valid it is analyzed frame by frame, which enables us to plot the position of the stimulus with respect to the initial head location. The angle of the head at the beginning of the turning movement is set to zero. […]
The y axis represents the number of times the animal turned toward the stimulus during testing, expressed as a percentage of the number of times the stimulus was presented on the side that had received the lesion and SAP treatment. […]

[3] = tested on: brachium of the superior colliculus (brain wound); assay: Histology and CT-B axon tracing after transection of the brachium of the superior colliculus in adult hamsters; format: in vivo, Syrian hamster; settings: BSC transection; for axon growth through the lesion site (CT-B tracing) / tissue reconnection / repair at the lesion site (histology): 10 ul of 1% SAP, section 2 months after injection
Protocol: as §1
Histology. The animals were sacrificed with an overdose of anesthesia 4 days after the intraocular injection of CT-B and were then perfused transcardially with PBS buffer (pH 7.4) followed by 2% paraformaldehyde in 0.1M phosphate buffer (pH 7.4). The brains and eyes were removed and postfixed at 4° C. until they sank. The tissue was cut on a cryostat in 30 micron coronal sections. These sections were mounted directly on gelatin-coated slides. The mounted sections were first air dried, then washed with PBS (pH 7.4) three times at 10 min intervals, and then preblocked in PBS (pH 7.4) containing 2% Triton X-100, 2% normal rabbit serum, and 2.5% bovine serum albumin for 30 min at room temperature. The slides were then incubated with goat anti-cholaragenoid (List Biological Lab, Inc.) (1:8000 dilution)+2% Triton X-100, 2% normal rabbit serum, and 2.5% bovine serum albumin for 48 hours at room temperature. Slides were then washed in PBS (pH 7.4) for three rounds of 10 min each. Sections were incubated with fluorescent donkey anti-IgG antibody Alexa-488 (secondary antibody from Molecular Probes, Inc.) (1:200 dilution) for 1 her 30 min at room temperature in a light protected chamber. Slides were then washed in PBS (pH 7.4) 4 to 5 times at 5 min intervals. The slides were then cover-slipped with Dabco. The slides were visualized through a fluorescent microscope and pictures were taken with a Kodak DCS 620 digital camera.
At the time of surgery, animals were treated by injection of 10 ul of 1% SAP RAD16-I into the brain wound. Animals were allowed to recover from surgery and maintained under standard laboratory conditions.
. Axon tracing and histology were performed as described above to allow visualization of the lesion site and assessment of axon regrowth. FIG. 10 is a parasagittal section of the dorsal midbrain of a hamster. Rostral is left and caudual is right. The section is from an 8 month old hamster and was taken 2 months following infliction of the lesion. The bright yellow in the middle of the picture that extends from the lower left to the upper right is in the middle of the lesion site. Retinal projections show as gray. Note the axons extending through the center of the cut. […] In addition, the tissue has reconnected at the lesion site in a similar manner to that observed in the younger animals.

[4] = Self-assembly of SAP on addition to CSF in vitro; format: physicochemical; settings: data not shown

With n-RADARADARADARADA-c [RADA16-I] the “axon regrowth across the lesion (cholera-toxin labeling)” value ([1]; 1 month hamster, lesion at P2 injected with 10 microliters of 1% SAP) was “axons have extended from a location proximal to the lesion to a distal location”, the “scar at lesion site (bright-field image)” value ([1]; 2 months after lesion and injection of SAP) was “minimal nature of the scar” and the “re-innervation of the caudal SC by the severed retinofugal axons” value ([1]; lesion at P2, 10 ul of 1% SAP) was “partial re-innervation of the caudal SC”. The “tissue reconnection across the lesion (histology)” value ([1]; lesion at P2, 10 ul of 1% SAP injected into brain wound, survival 1, 3, 6, 30 or 60 days, vs saline and no-injection controls (χ^2=34.8, df (1), p<<0.001)) was “the tissue appears to have reconnected across the lesion at all survival times”, the “behavioral recovery (response to visual stimulus)” value [2] was “significant behavioral recovery; also recorded: return of functional vision in six animals” and the “re-innervation of the SC by the severed retinofugal axons” value ([3]; 10 ul of 1% SAP at surgery) was “partial re-innervation of the SC”. For the same substance, the “axon growth through the lesion site (CT-B tracing)” value ([3]; listed as RAD16-I) was “axons have extended their processes to the superior colliculus”, the “tissue reconnection / repair at the lesion site (histology)” value ([3]; listed as RAD16-I) was “All of the tissue has repaired itself” and the “axon growth through the lesion site (CT-B tracing)” value ([3]; listed as SAP) was “axons growing through the site where the cut transected the brachium of the superior colliculus”. The “tissue reconnection / repair at the lesion site (histology)” value ([3]; listed as SAP) was “neural tissue reconnected across the site of the lesion” and the “self-assembly in CSF” value [4] was “resulted in self-assembly to form a peptide scaffold”.
